Measured values as given in patent publication US10782292B2, “Antibiotic susceptibility testing via plasmonic imaging and tracking” (priority 2015, dated 2020).
Entries after “also recorded” stand apart in the source; their conditions may differ.

Key:
E. coli O157:H7 [1] = assay: Plasmonic imaging and tracking (PIT) of Z-movement (nanomotion) of single antibody-tethered bacterial cells; assay type: cell-based
E. coli O157:H7 [2] = assay: Culturing in LB medium after antibiotic treatment on the sensor chip (validation of cell death); assay type: cell-based
Excerpt: […] the addition of polymyxin B, Z-movement decreases from ±5 nm to ±0.5 nm, which is close to the Brownian motion of a dead bacterium. We further validated the metabolic state by culturing and elongating the tethered cell in standard Luria Broth (LB) media before adding the antibiotic.
Referring now to FIG. […] PMB is a bactericidal antibiotic which kills Gram-negative bacteria by permeabilizing the outer membrane.^60 At high concentrations, […], PMB also depolarizes the cytoplasmic membrane, causing ion-permeable pores in the cell envelope.^30 Within a few seconds after adding the antibiotic, there was a marked decrease in the Z-movement of the bacterial cell from about ±3 to about ±1 nm. We further observed that after a few minutes, the bacterial cell Z-movement reached a baseline value of ±0.5 nm. […] The decrease in bacterial cell length has been previously correlated to cell lysis and cell death after the addition of polypeptide antibiotics.^69 We validated the correlation between the decreases in nanomotion and change of the bacterial metabolic state by replacing the antibiotic-containing PBS with LB medium (lacking PMB) on the sensor chip. […] We subsequently collected a small sample volume from the above sensor chip and subjected it to culturing overnight in LB medium.
Referring now specifically to FIG. 3D, there shown are control experiment data comparing Z-movement in PBS 102 and on injections of 2% glucose 104, 1×PBS 106, and antibiotic 108. […] After subsequently eliminating glucose in the 1×PBS medium, the amplitude of the nanomotion, measured over 1 s windows for 20 s videos, decreased back to the level prior to the injection of glucose (as shown in FIG. 3E). The positive correlation between glucose injection and Z-movement strongly supports that bacterial cell nanomotion originates from metabolic activity rather than Brownian motion.

[3] = system: UPEC E. coli strain CFT073; assay: PIT of Z-movement (nanomotion) of UPEC cells immobilized with APTES linker; assay type: cell-based; details: PMB 1 mg/mL, APTES surface, 1×PBS, FIG. 12
Experimental: We immobilized the UPEC strain on the sensor using the (3-aminopropyl)-triethoxysilane (APTES) linker, rather than using the antibody immobilization for the E. coli O157:H7 study described above. We studied the nanomotion changes as antibiotic PMB acted on bacterial cells at a bactericidal concentration of 1 mg/mL. […] These experiments indicate that the methods may be used for different bacterial strains and different antibiotics. To fully establish the present method for rapid AST in clinical settings, additional and more comprehensive tests will still be needed in the future.
An aliquot of frozen E. coli O157:H7 or E. coli CFT073 strain was thawed and used to inoculate 10 mL of LB medium. […]
All plasmonic imaging sequences were collected at 106 fps at a pixel resolution of 640×480. […] Images were recorded in either transmitted or plasmonic imaging mode for various time durations. […]
More specifically, the plasmonic image intensity was calculated by obtaining averaged intensity within a fixed area around the bacterial cell using the bare gold chip regions as reference. The Z-distance of the bacterial cell above the sensor surface was then calculated from the plasmonic image intensity (Iz) with a calibrated curve, given by Iz=I0 exp(−Δz/L), where I0 is a constant, Δz is the z displacement of a bacterial cell, and L is the decay constant. […]

E. coli O157:H7 [4] = assay: Transmitted microscope image of bacterial cell length after adding antibiotic; assay type: cell-based
Experimental: Referring now to FIG. 3C the effect of antibiotic polymycin B at a concentration of 500 μg/mL on Z-movement of a bacterial cell is shown. […] PMB is a bactericidal antibiotic which kills Gram-negative bacteria by permeabilizing the outer membrane.^60 At high concentrations, such as […] used in this study, PMB also depolarizes the cytoplasmic membrane, causing ion-permeable pores in the cell envelope.^30 Within a few seconds after adding the antibiotic, there was a marked decrease in the Z-movement of the bacterial cell from about ±3 to about ±1 nm. We further observed that after a few minutes, the bacterial cell Z-movement reached a baseline value of ±0.5 nm. […]
Referring now specifically to FIG. 3D, there shown are control experiment data comparing Z-movement in PBS 102 and on injections of 2% glucose 104, 1×PBS 106, and antibiotic 108. […] After subsequently eliminating glucose in the 1×PBS medium, the amplitude of the nanomotion, measured over 1 s windows for 20 s videos, decreased back to the level prior to the injection of glucose (as shown in FIG. 3E). […]
All plasmonic imaging sequences were collected at 106 fps at a pixel resolution of 640×480. […] Images were recorded in either transmitted or plasmonic imaging mode for various time durations.

Gram-negative bacteria = details: literature reference 30; cited from earlier work
UPEC strain = assay: Overnight culturing in LB medium after antibiotic treatment (validation of cell death), UPEC; assay type: cell-based, E. coli CFT073; details: after PMB 1 mg/mL

## [H]/N=C(/N)N[C@H]1[C@H](O)[C@@H](O)[C@H](O[C@@H]2O[C@@H](C)[C@](O)(C=O)[C@H]2O[C@@H]2O[C@@H](CO)[C@H](O)[C@@H](O)[C@@H]2NC)[C@@H](N/C(N)=N\[H])[C@@H]1O [streptomycin]
E. coli O157:H7 [1]; streptomycin 1 mg/mL, PBS supplemented with LB (0.4×LB media), FIG. 13
  Change in nanomotion (Z-movement) after streptomycin: decrease in nano-motion; also recorded: decrease in the nanomotion
E. coli O157:H7 [2]; after streptomycin 1 mg/ml
  Overnight culturing after streptomycin: confirmed the death of the bacteria

## Polymyxin B
E. coli O157:H7 [1]; 0.5 μg/ml (b80 prints 0.5 g/mL), after 20 min, 1×PBS, FIG. 10, listed as PMB
  Change in nanomotion (Z-movement) at sub-bactericidal concentration: did not observe changes in the nanomotion; also recorded: does not change the Z-movement
E. coli O157:H7 [1]; 100 μg/m, 1×PBS, FIG. 10, listed as PMB
  Change in nanomotion (Z-movement) at 5× bactericidal concentration: significant decrease in nanomotion; also recorded: large decrease in Z-movement
E. coli O157:H7 [1]; PMB 75 µg/mL (bactericidal concentration), FIG. 3D
  Change in nanomotion after antibiotic in glucose control experiment: decrease in bacterial nanomotion
E. coli O157:H7 [1]; added at t=120 s, FIG. 3A
  Change in Z-motion of a bacterial cell after adding antibiotic: large drop in Z-motion
E. coli O157:H7 [1]; after PMB 500 µg/mL, LB lacking PMB
  Nanomotion after replacing antibiotic-containing PBS with LB medium: no further change in the bacterial nanomotion
[3]; listed as PMB
  Change in nanomotion (Z-movement) of UPEC cells: decrease in bacterial nanomotion
[3]; listed as polymycin B
  Change in nanomotion (Z-movement) of UPEC cells: large decrease in the nano-motion
E. coli O157:H7 [4]; PMB 75 µg/mL, FIG. 11
  Cell length in transmitted microscope image after antibiotic: visible decrease in cell length
E. coli O157:H7 [4]; high antibiotic concentration (500 g/mL study)
  Bacterial cell length after adding antibiotic: decreases in bacterial cell length
Gram-negative bacteria
  Concentration at which bactericidal activity has been observed: 20 g/mL
E. coli O157:H7 [2]; after PMB 75 µg/mL
  Bacterial growth on overnight culturing in LB medium: no bacterial growth
E. coli O157:H7 [2]; after polymyxin B 75 μg/ml
  Cellular growth on subsequent incubation in LB media: did not lead to cellular growth
E. coli O157:H7 [2]; sample from sensor chip after PMB 500 µg/mL
  Growth of bacterial cells after overnight incubation in LB medium: no growth of bacterial cells
UPEC strain; listed as PMB
  Overnight culturing in LB medium of UPEC sample: no bacterial growth
UPEC strain; listed as polymycin B
  Overnight culturing in LB medium of UPEC sample: confirmed the death of the bacteria
